Results on 19 molecules are retold here after US9115092B2, “Substituted quinazoline and pyrido-pyrimidine derivatives” (Asana Biosciences, LLC, priority 2010, dated 2015).

In one experiment the target is T1, mTOR kinase (Homo sapiens, UniProt P42345).
T1 construct: purchased Millipore, USA
The experiment can be described thus: mTOR kinase TR-FRET assay. The format is biochemical. As to conditions: read-out: mTO R. In short, it runs like this: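 Compounds preincubated 60 min with mTOR (5 ng) in HEPES pH 7.5, EGTA, MnCl2; ULight-p70 S6K Thr389 peptide (50 nM) and ATP (20 μM) then added, 60 min at room temperature. EDTA-stopped, Eu-anti-phospho antibody detection by TR-FRET (665/615 nm); IC50 from variable-slope sigmoidal fit.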
For orientation: In TR-FRET formats the signal depends on donor and acceptor labels being close together.

The target of experiment [1] is T2, PI3Kα (wild-type), P110/P85α (Homo sapiens, UniProt P42336).
T2 construct: made in house; host or cells: SF9 insect cells
In words: PI3 Kinase TR-FRET assay, PI3Kα (wild-type). The format is biochemical. A digest of the protocol:
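Sf9-expressed His-purified P110/P85α (5 ng) preincubated 60 min RT with compound and PIP2 in buffer with 40 mM MgCl2, 5 mM DTT; reaction started with ATP (PIP2 and ATP both 10 μM), 30 min RT. PIP3 detected by TR-FRET displacement, 665/615 nm ratio; IC50 from dose-response curves.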

Experiment [2] relates to pS6RP(S235/236), PC3 cells. The experiment can be described thus: In-cell Western assay, pS6RP(S235/236) in PC3 cells. As to conditions: Homo sapiens, PC-3, In-cell Western. It is filed as cell-based, human. A digest of the protocol:
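Overnight-seeded PC3 cells were treated 2 h with serially diluted compound, then fixed and immunostained with phospho-specific primary antibodies and Eu-labelled secondary. Time-resolved Eu signal read at 615 nm (ex 340 nm), normalised by Hoechst 33258 staining (ex 355/em 460 nm); IC50 from sigmoidal dose-response fit.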

The next experiment deals with PC3 cells. The experiment can be described thus: XTT assay for cell viability, PC3 cells. The format is cell-based, human. As to conditions: Homo sapiens, PC-3, cell viability. In short, it runs like this:
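PC3 cells seeded at 1000 cells/well, grown 24 h, then exposed to serial dilutions of compound for 96 h. Viability read by XTT dye at 37° C, absorbance 465 nm. EC50 from sigmoidal dose-response fit.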
A general note: Formazan colour is commonly taken as a measure of viable cells.

Each structure is given as a SMILES string.

T2 sequence (P42336 whole entry): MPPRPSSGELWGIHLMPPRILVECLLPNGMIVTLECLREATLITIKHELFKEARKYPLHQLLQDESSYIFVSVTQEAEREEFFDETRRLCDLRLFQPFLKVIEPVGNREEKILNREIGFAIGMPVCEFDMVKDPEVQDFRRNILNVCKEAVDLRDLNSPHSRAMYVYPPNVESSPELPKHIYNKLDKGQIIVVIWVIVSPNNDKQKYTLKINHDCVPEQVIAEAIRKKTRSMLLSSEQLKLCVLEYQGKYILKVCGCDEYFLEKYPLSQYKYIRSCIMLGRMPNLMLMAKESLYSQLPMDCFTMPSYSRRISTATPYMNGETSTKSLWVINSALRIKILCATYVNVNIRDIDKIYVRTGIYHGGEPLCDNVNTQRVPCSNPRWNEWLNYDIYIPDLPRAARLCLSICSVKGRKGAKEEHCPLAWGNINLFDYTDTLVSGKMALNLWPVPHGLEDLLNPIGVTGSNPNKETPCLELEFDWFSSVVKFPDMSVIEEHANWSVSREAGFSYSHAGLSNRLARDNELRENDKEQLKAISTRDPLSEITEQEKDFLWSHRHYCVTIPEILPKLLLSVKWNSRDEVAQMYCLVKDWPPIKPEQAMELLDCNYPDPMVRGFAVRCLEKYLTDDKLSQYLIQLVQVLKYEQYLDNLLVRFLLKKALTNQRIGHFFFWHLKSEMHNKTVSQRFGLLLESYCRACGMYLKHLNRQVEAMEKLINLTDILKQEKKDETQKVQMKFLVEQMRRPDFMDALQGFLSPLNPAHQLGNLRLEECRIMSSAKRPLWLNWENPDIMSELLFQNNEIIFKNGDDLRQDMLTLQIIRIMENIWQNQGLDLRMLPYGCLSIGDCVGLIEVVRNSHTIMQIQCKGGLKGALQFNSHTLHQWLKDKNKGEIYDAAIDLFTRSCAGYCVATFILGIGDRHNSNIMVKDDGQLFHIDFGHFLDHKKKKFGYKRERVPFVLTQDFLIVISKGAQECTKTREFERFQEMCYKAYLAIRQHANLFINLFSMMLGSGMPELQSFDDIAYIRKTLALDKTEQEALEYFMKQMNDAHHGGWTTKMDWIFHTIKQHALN
T2 sequence (P27986 whole entry partner): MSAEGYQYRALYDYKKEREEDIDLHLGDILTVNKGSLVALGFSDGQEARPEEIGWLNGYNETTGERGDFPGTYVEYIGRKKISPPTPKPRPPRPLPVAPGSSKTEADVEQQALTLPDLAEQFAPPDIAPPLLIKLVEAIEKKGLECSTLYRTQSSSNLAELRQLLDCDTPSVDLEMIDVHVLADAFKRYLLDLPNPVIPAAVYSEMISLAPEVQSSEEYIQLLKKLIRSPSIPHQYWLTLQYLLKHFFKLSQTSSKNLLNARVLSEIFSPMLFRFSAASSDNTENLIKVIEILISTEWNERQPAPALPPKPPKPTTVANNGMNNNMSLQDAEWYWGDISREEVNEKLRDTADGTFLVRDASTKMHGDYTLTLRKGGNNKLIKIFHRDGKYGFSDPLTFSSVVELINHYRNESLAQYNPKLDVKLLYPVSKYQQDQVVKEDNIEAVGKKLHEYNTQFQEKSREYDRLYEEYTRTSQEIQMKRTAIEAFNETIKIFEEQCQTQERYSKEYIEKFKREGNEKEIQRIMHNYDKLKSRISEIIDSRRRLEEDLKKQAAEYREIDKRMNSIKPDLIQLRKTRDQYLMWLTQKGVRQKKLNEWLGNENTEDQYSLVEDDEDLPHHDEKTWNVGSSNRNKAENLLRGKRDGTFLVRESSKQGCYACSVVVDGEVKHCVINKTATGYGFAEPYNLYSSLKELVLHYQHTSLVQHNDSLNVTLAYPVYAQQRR

In the case of `Cc1ccc(-c2ccc3c(N4CCOCC4)nc(-c4ccc(NC(=O)Nc5ccc(C(=O)N6CCC(O)C6)cc5)cc4)nc3c2)o1` (stereo not shown) [Example 204, 1-(4-(3-hydroxypyrrolidine-1-carbonyl)phenyl)-3-(4-(7-(5-methylfuran-2-yl)-4-morpholino-quinazolin-2-yl)phenyl)urea], the IC50 on mTOR kinase was below 50 nM; in experiment [1], below 50 nM; in experiment [2], below 100 nM; in the experiment with PC3 cells it was below 100 nM.
As to `CN(C)[C@@H]1CCN(C(=O)c2ccc(NC(=O)Nc3ccc(-c4nc(N5CCOCC5)c5ncc(-c6cnn(C)c6)cc5n4)cc3F)cc2)C1` [Example 205, (R)-1-(4-(3-(dimethylamino)pyrrolidine-1-carbonyl)phenyl)-3-(2-fluoro-4-(7-(1-methyl-1H-pyrazol-4-yl)-4-morpholino-pyrido[3,2-d]pyrimidin-2-yl)phenyl)urea], the IC50 on mTOR kinase is below 50 nM; in experiment [1], below 50 nM; in experiment [2] it was 201 to 10000 nM; in the experiment on PC3 cells, 201 to 10000 nM.
As to `CC(O)c1ccc(-c2ccc3c(N4CCOCC4)nc(-c4ccc(NC(=O)Nc5ccc(C(=O)N(C)C)cc5)cc4)nc3c2)o1` (stereo not shown) [Example 206, 4-(3-(4-(7-(5-(1-hydroxyethyl)furan-2-yl)-4-morpholino-quinazolin-2-yl)phenyl)ureido)-N,N-dimethyl-benzamide], the IC50 on mTOR kinase is below 50 nM; in experiment [1] it was below 50 nM; in experiment [2], 201 to 10000 nM; in the experiment on PC3 cells, 201 to 10000 nM.
Turning to `CN1CCN(C(=O)c2ccc(NC(=O)Nc3ccc(-c4nc(N5CCOCC5)c5cc(F)c(-c6cccnc6)cc5n4)cc3F)cc2)CC1` [Example 211, 1-(2-fluoro-4-(6-fluoro-4-morpholino-7-(pyridin-3-yl)quinazolin-2-yl)phenyl)-3-(4-(4-methylpiperazine-1-carbonyl)phenyl)urea], the IC50 on mTOR kinase was below 50 nM; in experiment [1] it was below 50 nM; in experiment [2], 201 to 10000 nM; with PC3 cells, below 100 nM.
As for `CC(O)c1ccc(-c2ccc3c(N4CCOCC4)nc(-c4ccc(NC(=O)Nc5ccc(C(=O)N(C)C)cc5)c(F)c4)nc3c2)o1` (stereo not shown) [Example 214, 4-(3-(2-fluoro-4-(7-(5-(1-hydroxyethyl)furan-2-yl)-4-morpholino-quinazolin-2-yl)phenyl)ureido)-N,N-dimethyl-benzamide], the IC50 was below 50 nM at mTOR kinase, below 50 nM in experiment [1], 201 to 10000 nM in experiment [2] and below 100 nM in the experiment with PC3 cells.
`CNC(=O)c1ccc(NC(=O)Nc2ccc(-c3nc(N4CCOCC4)c4ccc(-c5cncnc5)cc4n3)cc2F)cc1` [Example 215, 4-(3-(2-fluoro-4-(4-morpholino-7-(pyrimidin-5-yl)quinazolin-2-yl)phenyl)ureido)-N-methyl-benzamide]: the IC50 on mTOR kinase was in the range of 50 to 200 nM; in experiment [1], 50 to 200 nM; in experiment [2] it was 201 to 10000 nM; in the experiment with PC3 cells, 201 to 10000 nM.
`CC(O)c1ccc(-c2cnc3c(N4CCOCC4)nc(-c4ccc(NC(=O)Nc5ccc(C(=O)N(C)C)cc5)cc4)nc3c2)o1` (stereo not shown) [Example 216, 4-(3-(4-(7-(5-(1-hydroxyethyl)furan-2-yl)-4-morpholino-pyrido[3,2-d]pyrimidin-2-yl)phenyl)ureido)-N,N-dimethyl-benzamide]: the IC50 is below 50 nM on mTOR kinase, below 50 nM in experiment [1], 201 to 10000 nM in experiment [2] and 201 to 10000 nM with PC3 cells.
As for `CN(C)CCNC(=O)c1ccc(NC(=O)Nc2ccc(-c3nc(N4CCOCC4)c4ccc(-c5cncnc5)cc4n3)cc2F)cc1` [Example 217, N-(2-(dimethylamino)ethyl)-4-(3-(2-fluoro-4-(4-morpholino-7-(pyrimidin-5-yl)quinazolin-2-yl)phenyl)ureido)-benzamide], the IC50 was below 50 nM at mTOR kinase, below 50 nM in experiment [1], 201 to 10000 nM in experiment [2] and 201 to 10000 nM with PC3 cells.
Turning to `CN(C)C(=O)c1ccc(NC(=O)Nc2ccc(-c3nc(N4CCOCC4)c4ccc(-c5ccc(C(C)(C)O)o5)cc4n3)cc2)cc1` [Example 222, 4-(3-(4-(7-(5-(2-hydroxypropan-2-yl)furan-2-yl)-4-morpholino-quinazolin-2-yl)phenyl)ureido)-N,N-dimethyl-benzamide], the IC50 was below 50 nM at mTOR kinase, below 50 nM in experiment [1], 201 to 10000 nM in experiment [2] and 201 to 10000 nM in the experiment on PC3 cells.
Consider `CN(C)C(=O)c1ccc(NC(=O)Nc2ccc(-c3nc(N4CCOCC4)c4ccc(-c5ccc(C#N)o5)cc4n3)cc2)cc1` [Example 223, 4-(3-(4-(7-(5-cyanofuran-2-yl)-4-morpholino-quinazolin-2-yl)phenyl)ureido)-N,N-dimethyl-benzamide], for which the IC50 at mTOR kinase is below 50 nM; in experiment [1], below 50 nM; in experiment [2] it was 201 to 10000 nM; with PC3 cells, 201 to 10000 nM.
For `CC(=O)c1ccc(-c2ccc3c(N4CCOCC4)nc(-c4ccc(NC(=O)Nc5ccc(C(=O)N(C)C)cc5)cc4)nc3c2)o1` [Example 224, 4-(3-(4-(7-(5-acetylfuran-2-yl)-4-morpholino-quinazolin-2-yl)phenyl)ureido)-N,N-dimethyl-benzamide], the IC50 on mTOR kinase was below 50 nM; in experiment [1], below 50 nM; in experiment [2], 201 to 10000 nM; with PC3 cells, 201 to 10000 nM.
As for `CN(C)C(=O)c1ccc(NC(=O)Nc2ccc(-c3nc(N4CCOCC4)c4ccc(-c5cncnc5)cc4n3)c(F)c2)cc1` [Example 237, 4-(3-(3-fluoro-4-(4-morpholino-7-(pyrimidin-5-yl)quinazolin-2-yl)phenyl)ureido)-N,N-dimethyl-benzamide], the IC50 on mTOR kinase is below 50 nM; in experiment [1], below 50 nM; in experiment [2] it was 201 to 10000 nM; in the experiment on PC3 cells it was 201 to 10000 nM.
As for `CN(C)C(=O)c1ccc(NC(=O)Nc2ccc(-c3nc(N4CCOCC4)c4ncc(-c5cnn(C)c5)cc4n3)c(F)c2)cc1` [Example 238, 4-(3-(3-fluoro-4-(7-(1-methyl-1H-pyrazol-4-yl)-4-morpholino-pyrido[3,2-d]pyrimidin-2-yl)phenyl)ureido)-N,N-dimethyl-benzamide], the IC50 was below 50 nM on mTOR kinase, below 50 nM in experiment [1], 201 to 10000 nM in experiment [2] and 201 to 10000 nM with PC3 cells.
Take `CN(C)C(=O)c1ccc(NC(=O)Nc2ccc(-c3nc(N4CCOCC4)c4ccc(-c5cccnc5F)cc4n3)c(F)c2)cc1` [Example 241, 4-(3-(3-fluoro-4-(7-(2-fluoropyridin-3-yl)-4-morpholino-quinazolin-2-yl)phenyl)ureido)-N,N-dimethyl-benzamide]: the IC50 on mTOR kinase was 50 to 200 nM; in experiment [1], below 50 nM; in experiment [2], 201 to 10000 nM; in the experiment on PC3 cells, 201 to 10000 nM.
For `COc1ncc(-c2ccc3c(N4CCOCC4)nc(-c4ccc(NC(=O)Nc5ccc(C(=O)N(C)C)cc5)cc4F)nc3c2)cn1` [Example 242, 4-(3-(3-fluoro-4-(7-(2-methoxypyrimidin-5-yl)-4-morpholino-quinazolin-2-yl)phenyl)ureido)-N,N-dimethyl-benzamide], the IC50 was below 50 nM at mTOR kinase, below 50 nM in experiment [1], 201 to 10000 nM in experiment [2] and 201 to 10000 nM in the experiment with PC3 cells.
Take `CN(C)C(=O)c1ccc(NC(=O)Nc2ccc(-c3nc(N4CCOCC4)c4ccc(-c5cccnc5)cc4n3)c(F)c2)cc1` [Example 243, 4-(3-(3-fluoro-4-(4-morpholino-7-(pyridin-3-yl)quinazolin-2-yl)phenyl)ureido)-N,N-dimethyl-benzamide]: the IC50 at mTOR kinase was below 50 nM; in experiment [1], below 50 nM; in experiment [2], 201 to 10000 nM; in the experiment on PC3 cells it was 201 to 10000 nM.
`CN(C)C(=O)c1ccc(NC(=O)Nc2ccc(-c3nc(N4CCOCC4)c4ncc(-c5cccnc5F)cc4n3)c(F)c2)cc1` [Example 244, 4-(3-(3-fluoro-4-(7-(2-fluoropyridin-3-yl)-4-morpholino-pyrido[3,2-d]pyrimidin-2-yl)phenyl)ureido)-N,N-dimethyl-benzamide]: the IC50 on mTOR kinase was below 50 nM; in experiment [1], below 50 nM; in experiment [2], 201 to 10000 nM; in the experiment with PC3 cells it was 201 to 10000 nM.
For `Cc1noc(C)c1-c1ccc2c(N3CCOCC3)nc(-c3ccc(NC(=O)Nc4ccc(C(=O)N(C)C)c(F)c4)cc3)nc2c1` [Example 246, 4-(3-(4-(7-(3,5-dimethylisoxazol-4-yl)-4-morpholino-quinazolin-2-yl)phenyl)ureido)-2-fluoro-N,N-dimethyl-benzamide], the IC50 was below 50 nM on mTOR kinase, 50 to 200 nM in experiment [1], 201 to 10000 nM in experiment [2] and 201 to 10000 nM in the experiment with PC3 cells.
Turning to `CN(C)C(=O)c1ccc(NC(=O)Nc2ccc(-c3nc(N4CCOCC4)c4ccc(-c5ccco5)cc4n3)c(F)c2)cc1` [Example 247, 4-(3-(3-fluoro-4-(7-(furan-2-yl)-4-morpholino-quinazolin-2-yl)phenyl)ureido)-N,N-dimethyl-benzamide], the IC50 lay within 50 to 200 nM on mTOR kinase, 50 to 200 nM in experiment [1], 201 to 10000 nM in experiment [2] and 201 to 10000 nM in the experiment on PC3 cells.
